What was measured:
[1] = tested on: liver of Het-MλKO mice; experiment: hepatic mRNA and nuclear NFκB levels in Het-MλKO mice; assay type: in vivo, mouse; details: for hepatic ACC mRNA / hepatic FAS mRNA: 7-day treatment s.c. (ATM 60 mg/kg; ICAPP 0.4 mg/kg); for hepatic G6 Pase expression / hepatic PEPCK expression / hepatic SREBP-1c mRNA: s.c. once daily (ATM 60 mg/kg; ICAPP 0.4 mg/kg; ICAP 0.5 mg/kg)
From the text: In Vivo Mouse Studies: Male wild type (WT) and heterozygous muscle-specific PKC-λ knockout (Het-MλKO) mice were generated as described (Farese et al., J. Clin. Invest. 117:2289-2301, 2007) and used at 6-12 months of age, when the O/MS/T2DM phenotype in MλKO mice is well-developed. Mice were housed in a temperature-controlled environment with alternating 12-hour light and dark cycles, and fed ad libitum with standard chow (Harlan Teklad 20/18 with 5% fat, (10% of calories from fat)). All experimental procedures in mice were approved by the Institutional Animal Care and Use Committees of the Roskamp Institute and the University of South Florida College of Medicine, and the James A. Haley Veterans Administration Medical Center Research and Development Committee, Tampa, Fla.
(ICAPP; prepared by Southern Research, Birmingham, Ala.) at 0.4 mg/kg body weight. On the morning of the eighth day of inhibitor treatment, mice were injected intraperitoneally (IP) with 0.9% saline or saline containing 1 U insulin/kg body weight 15 minutes before sacrifice, an optimal time for studies of insulin stimulation of aPKC and Akt in liver, muscle and adipose tissues (Standaert et al., J. Biol. Chem. 279:24929-24934, 2004; Sajan et al., J. Lipid Res. 50:1133-1145, 2009; Sajan et al., Diabetologia 52:1197-1207, 2009; Farese et al., J. Clin. Invest. 117:2289-2301, 2007). After killing, blood, liver, quadriceps muscle and abdominal adipose tissues were rapidly removed and homogenized in buffer with a POLYTRON® homogenizer.
mRNA Measurements: As previously described (Sajan et al., J. Lipid Res. 50:1133-1145, 2009; Sajan et al., Diabetologia 52:1197-1207, 2009; Farese et al., J. Clin. Invest. 117:2289-2301, 2007), tissues were added to TRIZOL® reagent (Invitrogen) and RNA was extracted and purified with the RNEASY® Mini-Kit (Qiagen; Valencia, Calif.) and RNAase-free DNAase set (Qiagen) as per kit instructions, quantified by measuring A260/A280, further checked for purity by electrophoresis on 1.2% agarose gels, and mRNA quantified by quantitative real-time reverse transcriptase-polymerase chain reaction (RT-PCR). Reverse transcription was accomplished with TAQMAN® reverse transcription reagent from Applied Biosystems (Foster City, Calif., USA). mRNAs were measured with a SYBR® Green kit (Applied Biosystems) using the nucleotide primers shown in Table 1.
Nuclear Preparations: As previously described (Sajan et al., J. Lipid Res. 50:1133-1145, 2009; Sajan et al., Diabetologia 52:1197-1207, 2009; Farese et al., J. Clin. Invest. 117:2289-2301, 2007), liver nuclei were prepared with NE-PER® Nuclear and Cytoplasmic Extraction Reagents (Pierce Biotechnology/Thermo Scientific, Waltham, Mass.; Cat. No. 78833) Levels of the active p65/RelA subunit of NFκB were measured in these nuclear preparations.

[2] = tested on: total (ι plus ζ) aPKC; experiment: aPKC activity and phosphorylation in intact human hepatocytes; assay type: cell-based; details: for phosphorylation of aPKC auto(trans)phosphorylation sites (p-threonine-555/560-PKC-ι/ζ): intact human hepatocytes
From the text: Human cryo-preserved hepatocytes (70-90% viability) were obtained from the Zen-Bio Corp (Research Triangle Park, North Carolina). These hepatocytes were harvested after perfusion with collagenase-containing buffer of livers surgically removed from non-diabetic patients (2 females and 6 males; ages, 43-60 years, 51±3 (mean±SEM); BMI, 23-35, 30±2) and T2DM patients (2 females and 3 males, ages, 46-68 years, 60±4; BMI, 27±2; all insulin-requiring) who had been maintained as transplant donors, but were ultimately rejected for administrative reasons. To maximize the importance of comparative differences, hepatocytes from T2DM and non-diabetic patients, and of similar age and sex, were routinely incubated and assayed side-by-side.
After thawing, the hepatocytes were distributed (approximately 10^6 cells per 100 mm plate) and incubated approximately 16 hours overnight in Dulbecco's minimal essential medium containing 5% fetal calf serum, 100 units/ml sodium-penicillin, 100 μg/ml streptomycin-sulfate, 1 μM insulin and 2 μM dexamethasone. After washing, cells were incubated first for 2 hours in William's E medium (Sigma-Aldrich, St. Louis, Mo., catalog no. W1878) containing GLUTAMAX™ (Gibco/Invitrogen, Carlsbad, Calif.), 100 units/ml sodium-penicillin, 100 μg/ml streptomycin-sulfate, 10 μM insulin, 100 nM dexamethasone, and then for 2 hours in William's E medium containing 100 units/ml sodium penicillin, 100 μg/ml streptomycin-sulfate, 100 nM dexamethasone, 0.25 mg/ml transferrin, 0.25 μg/ml sodium selenite and 10 μM insulin. Cells were then washed and incubated for 3 hours in the same medium, but lacking insulin. Where indicated, […], […] After incubation, cells were sonicated in homogenizing buffer.
Tissue and Immunoprecipitate Preparations: As previously described (Standaert et al., J. Biol. Chem. 279:24929-24934, 2004; Sajan et al., J. Lipid Res. 50:1133-1145, 2009; Sajan et al., Diabetologia 52:1197-1207, 2009; Farese et al., J. Clin. Invest. 117:2289-2301, 2007) hepatocytes and tissues from in vivo experiments were homogenized in ice-cold buffer containing 0.25 M sucrose, 20 mM Tris/HCl (pH 7.5), 2 mM EGTA, 2 mM EDTA, 1 mM phenylmethylsulfonyl fluoride (PMSF), 20 μg/ml leupeptin, 10 μg/ml aprotinin, 2 mM Na4P2O7, 2 mM Na3VO4, 2 mM NaF, and 1 μM microcystin. After centrifugation for 10 minutes at 700×g to remove unbroken cells, debris, nuclei, and floating fat, cell lysates were stored at −70° C. After addition of 1% TRITON® X-100, 0.6% Nonidet and 150 mM NaCl, lysates were cleared of insoluble materials by low-speed centrifugation and subsequently immunoprecipitated with antibodies that target: (a) aPKCs (rabbit polyclonal antiserum from Santa Cruz Biotechnologies (Santa Cruz, Calif.) that recognizes C-termini of both PKC-λ and PKC-ζ); and (b) Akt2 (Upstate Cell Signaling/Millipore, Billerica, Mass.). Immunoprecipitates were collected on Sepharose-AG beads (Santa Cruz Biotechnologies).
aPKCι Assays: aPKC enzyme activity was measured as previously described (Standaert et al., J. Biol. Chem. 279:24929-24934, 2004; Sajan et al., J. Lipid Res. 50:1133-1145, 2009; Sajan et al., Diabetologia 52:1197-1207, 2009; Farese et al., J. Clin. Invest. 117:2289-2301, 2007). […]

[3] = liver of ICAP-treated Mλ-Het KO mice, relative to wild type = 1
[4] = Het-MλKO mice, ATM 60 mg/kg/day s.c., 7 days

SMILES	hepatic ACC mRNA ([1]; Het-MλKO mice)	hepatic FAS mRNA ([1]; Het-MλKO mice)	hepatic G6 Pase expression ([1]; Het-MλKO mice)	hepatic PEPCK expression ([1]; Het-MλKO mice)	hepatic SREBP-1c mRNA ([1]; Het-MλKO mice)	PDK1-dependent phosphorylation of activation loop sites of PKC-ι/ζ (threonine-403/410) ([2]; human hepatocytes)	basal immunoprecipitable aPKC activity ([2]; human hepatocytes, basal (no insulin))	phosphorylation of aPKC auto(trans)phosphorylation sites (p-threonine-555/560-PKC-ι/ζ) [2]	inhibition of insulin-stimulated total (ι plus ζ) aPKC activity in intact human hepatocytes ([2]; non-diabetic human hepatocytes, 4 hours)	relative mRNA level, G6Pase [1, 3]	relative mRNA level, PEPCK [1, 3]	relative mRNA level, SREBP-1c [1, 3]	insulin-provoked increase in aPKC activity ([2]; non-diabetic human hepatocytes, 6 hours, 100 nM insulin, 100 nM ICAP)	hepatic active nuclear NFκB/p65/RelA levels [1, 4]	hepatic expression of IL-1β [1, 4]	hepatic expression of TNF-α [1, 4]	total aPKC activity in intact hepatocytes ([2]; human hepatocytes)
NC(=O)c1ncn([C@@H]2C[C@H](COP(=O)(O)O)[C@@H](O)[C@H]2O)c1N [ICAPP, 1H-imidazole-4-carboxamide, 5-amino-1-[2,3-dihydroxy-4-[(phosphonooxy)methyl]cyclopentyl]-[1R-(1α,2β,3β,4α)]]	diminished to wild type levels	diminished to wild type levels	trended downward to or toward control levels	trended downward to or toward control levels	diminished to wild type levels	did not inhibit	resistant	diminished	approximately 50%								
NC(=O)c1ncn([C@@H]2C[C@H](CO)[C@@H](O)[C@H]2O)c1N [ICAP, 1H-imidazole-4-carboxamide 5-amino-1-[2,3-dihydroxy-4-[hydroxymethyl]cyclopentyl]-[1R-(1α,2β,3β,4α)]]			decreased	decreased	decreased					1.42	0.52	1.14	inhibited				
O=C([O-])CC([S][Au])C(=O)[O-] (centres unmarked) [ATM, aurothiomalate, reference compound]	decreased, virtually to normal	decreased, virtually to normal	diminished	diminished	decreased, virtually to normal			diminished						decreased, virtually to normal	normalized	normalized	diminished
